Experimental findings from US11779661B2, “Theranostic nucleic acid binding fluorescent nanoprobes and uses thereof” (The General Hospital Corporation, priority 2016, dated 2023) are described below.

The experiment has as its system Bacterial Phage Lambda DNA. In words: In vitro nucleic acid binding fluorescence assay, Lambda DNA. The note with it: equivalent fluorochrome concentrations, FIG. 1F. On the procedure: Bacterial Phage Lambda DNA (Sigma-Aldrich), CpG DNA (Enzo Life, Plymouth Meeting, Pa.), Torula yeast RNA (Sigma-Aldrich) were completely dissolved in Tris-acetate-EDTA (TAE) buffer (pH=8) by gentle inversion overnight at 4° C. Lambda DNA, CpG DNA, yeast RNA stock solutions were characterized by spectrophotometry to determine the concentration and purity. Total mouse heart RNA was extracted from C57Bl6 mouse hearts using TRI Reagent (Sigma-Aldrich) and characterized with a NanoDrop spectrophotometer (Thermo Fisher) as described in Feng Y, Chen H, et al., J Biol Chem. 2015; 290: 26688-98. […] Fluorescence was measured with the GloMax-Multi Detection System and snap-in fluorescent optical kits (Promega, Madison, Wis.). EC50 was determined using the dose-response curve fitting function implemented in Prism (GraphPad, La Jolla, Calif.).

For `CN1/C(=C/c2cc[n+](CCC[N+](C)(C)C)c3ccccc23)Sc2ccccc21` [TO-PRO 1], the “Fluorescence increase with DNA concentration” value is reported as “substantially less increase”.
Next, Cy5.5: “No fluorescence increase and none”.
